In ChEMBL document CHEMBL5233229, “Recent advances in the development of ubiquitin-specific-processing protease 7 (USP7) inhibitors” (Eur J Med Chem, 2020):
Several values for one entry are separate records, joined by “and”; a condition that tells them apart may be missing. Identical values can stand only once.

Tests used:
[1] = biological target: T1, Ubiquitin carboxyl-terminal hydrolase 7 (Homo sapiens, UniProt Q93009); assay: Inhibition of human USP7 using ubiquitin-Rh110 as substrate incubated for 23 to 45 mins by fluorescence based assay
T1 sequence (Q93009 whole entry): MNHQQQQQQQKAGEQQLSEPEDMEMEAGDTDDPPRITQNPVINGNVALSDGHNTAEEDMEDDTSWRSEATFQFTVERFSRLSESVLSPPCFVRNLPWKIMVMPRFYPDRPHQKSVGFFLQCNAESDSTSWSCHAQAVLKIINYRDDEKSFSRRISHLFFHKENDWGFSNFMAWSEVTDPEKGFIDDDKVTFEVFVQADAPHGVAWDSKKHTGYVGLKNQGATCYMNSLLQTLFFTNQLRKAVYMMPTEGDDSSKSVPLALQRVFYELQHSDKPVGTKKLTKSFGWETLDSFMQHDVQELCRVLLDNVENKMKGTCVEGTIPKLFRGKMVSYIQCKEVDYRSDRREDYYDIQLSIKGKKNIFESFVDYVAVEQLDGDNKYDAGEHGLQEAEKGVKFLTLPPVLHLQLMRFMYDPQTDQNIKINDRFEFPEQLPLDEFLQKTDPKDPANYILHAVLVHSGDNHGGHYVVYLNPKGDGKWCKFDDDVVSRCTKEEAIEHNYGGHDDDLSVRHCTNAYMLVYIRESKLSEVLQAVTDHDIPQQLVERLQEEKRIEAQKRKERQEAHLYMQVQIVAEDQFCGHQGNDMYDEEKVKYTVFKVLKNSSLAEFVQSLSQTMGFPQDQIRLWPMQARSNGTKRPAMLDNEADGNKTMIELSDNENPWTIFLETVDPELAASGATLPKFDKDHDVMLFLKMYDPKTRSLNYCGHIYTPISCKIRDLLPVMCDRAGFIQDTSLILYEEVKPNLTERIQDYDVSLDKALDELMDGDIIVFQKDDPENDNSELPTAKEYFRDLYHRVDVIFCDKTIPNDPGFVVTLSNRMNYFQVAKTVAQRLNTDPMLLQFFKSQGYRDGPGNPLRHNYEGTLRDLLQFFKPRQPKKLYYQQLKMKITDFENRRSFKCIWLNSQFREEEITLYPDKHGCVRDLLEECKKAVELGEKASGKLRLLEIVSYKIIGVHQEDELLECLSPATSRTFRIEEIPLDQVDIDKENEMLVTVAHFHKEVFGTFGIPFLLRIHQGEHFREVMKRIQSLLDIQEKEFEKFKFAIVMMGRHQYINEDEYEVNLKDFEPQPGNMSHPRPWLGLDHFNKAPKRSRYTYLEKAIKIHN

[2] = biological target: T1, Ubiquitin carboxyl-terminal hydrolase 7; assay: Inhibition of human USP7 using Ub-AMC as substrate
[3] = biological target: T1, Ubiquitin carboxyl-terminal hydrolase 7; assay: Inhibition of human USP7 using Ub-EKL as substrate

| Compound | IC50 [1] | EC50 [3] | also measured |
| --- | --- | --- | --- |
| O=C(CCc1ccccc1)N1CCC(O)(Cn2cnc3cc(Cl)ccc3c2=O)CC1 |  |  | IC50 [2]: 12 µM |
| C[C@@H](CC(=O)N1CCC(O)(Cn2cnc3cc(NC(=O)CCN4CCN(C)CC4)ccc3c2=O)CC1)c1ccccc1 |  |  | IC50 [2]: 7.18 µM and 11 µM |
| CC1CS(=O)(=O)c2cc(NC(=O)c3nnc(Sc4c(Cl)cncc4Cl)s3)ccc21 (stereo not drawn) |  | 1 µM |  |
| CC(=O)c1cccc(NC(=O)c2nnc(Sc3c(Cl)cncc3Cl)s2)c1 |  | 1 µM |  |
| O=C(COc1cccc(Cl)c1Cl)Nc1cc2c(=O)n(CC3(O)CCN(C(=O)C4CC4)CC3)cnn2c1 | 1 µM |  |  |
| CN(C)CCCNC1CS(=O)(=O)c2cc(NC(=O)c3cnc(Sc4c(Cl)cncc4Cl)s3)ccc21 (stereo not drawn) |  | < 1 µM |  |
| CN(C)CCCOc1ccc(NC(=O)c2cnc(Sc3c(Cl)cncc3Cl)s2)cc1 |  | > 10 µM |  |
| O=C(Nc1ccc2c(c1)S(=O)(=O)C=C2)c1nnc(Sc2c(F)cncc2Cl)s1 |  | 5 µM |  |
| O=C(Nc1ccc(NCCCN2CCOCC2)cc1)c1nnc(Sc2c(Cl)cncc2Cl)s1 |  | < 1 µM |  |
| CNS(=O)(=O)c1ccc(NC(=O)c2nnc(Sc3c(Cl)cncc3Cl)s2)cc1 |  | < 1 µM |  |
| CC(C)C(CC(=O)N1CCC(O)(Cn2cnc3cc(NC(=O)CCN4CCN(C)CC4)ccc3c2=O)CC1)c1ccccc1 (stereo not drawn) |  |  | IC50 [2]: 0.27 µM |
| COCCOCCN(C(=O)c1nnc(Sc2c(Cl)cncc2Cl)s1)c1ccc2c(c1)S(=O)(=O)CC2 |  | 2 µM |  |
| O=C(Nc1ccc2c(c1)S(=O)(=O)CC2NCCN1CCOCC1)c1nnc(Sc2c(Cl)cncc2Cl)s1 (stereo not drawn) |  | < 1 µM |  |
| CN(C)CCCNc1ccc(NC(=O)c2nnc(Sc3c(Cl)cncc3Cl)s2)cc1 |  | < 1 µM |  |
| CN(C)CCCOc1ccc(NC(=O)c2nnc(Sc3c(Cl)cncc3Cl)s2)cc1 |  | < 1 µM |  |
| O=C(Nc1cnccn1)c1nnc(Sc2c(Cl)cncc2Cl)s1 |  | < 1 µM |  |
| CN(C(=O)c1nnc(Sc2c(Cl)cncc2Cl)s1)c1ccc2c(c1)S(=O)(=O)C=C2 |  | 1 µM |  |
| CC(CC(=O)N1CCC(O)(Cn2cnc3cc(NC(=O)CCn4ccnc4)ccc3c2=O)CC1)c1ccccc1 (stereo not drawn) |  |  | IC50 [2]: 0.24 µM |
| O=C(Nc1ccc2c(c1)S(=O)(=O)C=C2)c1sc(Sc2c(Cl)cncc2Cl)nc1C(F)(F)F |  | 5 µM |  |
| O=C(Nc1ccc2c(c1)S(=O)(=O)C=C2)c1cnc(Sc2ccncc2Cl)s1 |  | 5 µM |  |
| CC1CS(=O)(=O)c2cc(NC(=O)c3cnc(Sc4c(Cl)cncc4Cl)s3)ccc21 (stereo not drawn) |  | 2 µM |  |

| Compound | IC50 [1] | EC50 [3] | also measured |
| --- | --- | --- | --- |
| O=C(Nc1ccc2c(c1)S(=O)(=O)C=C2)c1cnc(Sc2c(Cl)cncc2Cl)s1 |  | 2 µM |  |
| O=C(Nc1ccc2c(c1)C(=O)CC2)c1nnc(Sc2c(Cl)cncc2Cl)s1 |  | 1 µM |  |
| Cc1ccc(OCC(=O)Nc2cc3c(=O)n(CC4(O)CCN(C(=O)C5CC5)CC4)cnn3c2)cc1C | 1 µM |  |  |
| CN(C)CCCOc1ccc(NC(=O)c2nnc(Sc3c(Cl)cncc3Br)s2)cc1 |  | < 1 µM |  |
| O=C(Nc1cnc2ccccc2c1)c1nnc(Sc2c(Cl)cncc2Cl)s1 |  | 1 µM |  |
| O=C(Nc1ccc2c(c1)S(=O)(=O)C=C2)c1nnc(Sc2c(Cl)cncc2Br)s1 |  | < 1 µM |  |
| CN(C)CCOc1cccc(NC(=O)c2nnc(Sc3c(Cl)cncc3Cl)s2)c1 |  | < 1 µM |  |
| Cc1nc2ccc(NC(=O)c3nnc(Sc4c(Cl)cncc4Cl)s3)cc2s1 |  | 1 µM |  |
| Nc1ncc(Cl)c(Sc2nnc(C(=O)Nc3ccc4c(c3)S(=O)(=O)C=C4)s2)c1Cl |  | 2 µM |  |
| O=C(c1cnc(C2CC2)o1)N1CCC(O)(Cn2cnn3c(-c4ccc(F)cc4)ncc3c2=O)CC1 | 1 µM |  |  |
| O=C(Nc1ccc2c(c1)S(=O)(=O)C=C2)c1cnc(Sc2c(Cl)cncc2Cl)o1 |  | > 10 µM |  |
| O=C(Nc1ccc2c(c1)S(=O)(=O)C=C2)c1nnc(Sc2c(Cl)cccc2Cl)s1 |  | > 10 µM |  |
| CN(C)CCCOc1ccc(NC(=O)c2nnc(Sc3c(Cl)cncc3Cl)o2)cc1 |  | > 10 µM |  |
| CS(=O)(=O)c1cccc(NC(=O)c2nnc(Sc3c(Cl)cncc3Cl)s2)c1 |  | 1 µM |  |
| O=C(Nc1cccc(Cl)n1)c1nnc(Sc2c(Cl)cncc2Cl)s1 |  | < 1 µM |  |
| O=C(Nc1ccc2c(c1)S(=O)(=O)CC2)c1nnc(Sc2c(Cl)cncc2Cl)s1 |  | < 1 µM |  |
| Cc1c(NC(=O)c2nnc(Sc3c(Cl)cncc3Cl)s2)ccc2c1S(=O)(=O)CC2 |  | 2 µM |  |
| CN(C)CC(O)COc1ccc(NC(=O)c2nnc(Sc3c(Cl)cncc3Cl)s2)cc1 (stereo not drawn) |  | < 1 µM |  |
| CN(C)CCNC1CS(=O)(=O)c2cc(NC(=O)c3nnc(Sc4c(Cl)cncc4Cl)s3)ccc21 (stereo not drawn) |  | < 1 µM |  |
| O=C(Nc1ccc2c(c1)S(=O)(=O)C=C2)c1nnc(Sc2c(Cl)cncc2Cl)o1 |  | < 1 µM |  |
| O=C(Nc1ccc2c(c1)S(=O)(=O)C=C2)c1nnc(Sc2c(Cl)cncc2Cl)s1 |  | < 1 µM |  |

Further lines, with some results ahead:

| IC50 [1] | EC50 [3] | Compound | also measured |
| --- | --- | --- | --- |
| 1 µM |  | O=C(c1ccc(-c2cnc3ccccc3c2)cc1)N1CCC(O)(Cn2cnn3cccc3c2=O)CC1 |  |
| < 1 µM |  | CC(CC(=O)N1CCC(O)(Cn2cnn3cccc3c2=O)CC1)c1ccccc1 (stereo not drawn) |  |
| 1 µM |  | NC(=O)c1ccc(-c2cccc(C(=O)N3CCC(O)(Cn4cnn5cccc5c4=O)CC3)c2)cc1 |  |
| 1 µM |  | O=C(c1cccc(-c2cccc(F)c2)c1)N1CCC(O)(Cn2cnn3cccc3c2=O)CC1 |  |
| 1 µM |  | O=C(c1ccc(-c2cccc(C(=O)N3CCC(O)(Cn4cnn5cccc5c4=O)CC3)c2)cc1)N1CCCC1 |  |
| 1 µM |  | O=C(c1ccc(Cn2nnc3ccccc32)cc1)N1CCC(O)(Cn2cnn3cccc3c2=O)CC1 |  |
| 1 µM |  | Cc1ccccc1-c1cccc(C(=O)N2CCC(O)(Cn3cnn4cccc4c3=O)CC2)c1 |  |
| 1 µM |  | O=C(c1ccc(-c2ccc(C(=O)N3CCC(O)(Cn4cnn5cccc5c4=O)CC3)c(C3CCCC3)c2)cc1)N1CCCC1 |  |
| 1 µM |  | C=C(C)C(=O)Nc1ccccc1-c1ccc(C(=O)N2CCC(O)(Cn3cnn4cccc4c3=O)CC2)cc1 |  |
| 1 µM |  | O=C(c1ccc(-c2ccc(C(=O)N3CCC(O)(Cn4cnn5cccc5c4=O)CC3)c(Cl)c2)cc1)N1CCCCC1 |  |
| 1 µM |  | O=C(c1ccc(F)cc1)N1CCC(O)(Cn2cnn3c(-c4ccc(F)cc4)ncc3c2=O)CC1 |  |
| 1 µM |  | O=C(c1cccc(-c2ccccc2F)c1)N1CCC(O)(Cn2cnn3cccc3c2=O)CC1 |  |
| 1 µM |  | O=C(c1ccccc1)N1CCC(O)(Cn2cnn3c(-c4ccccc4)ncc3c2=O)CC1 |  |
| 1 µM |  | O=C(c1ccc(Sc2ccccc2)cc1)N1CCC(O)(Cn2cnn3cccc3c2=O)CC1 |  |
| 1 µM |  | Cc1cc2c(=O)n(CC3(O)CCN(C(=O)CC(C)c4ccccc4)CC3)cnn2c1 (stereo not drawn) |  |
| 1 µM |  | O=C(c1ccccc1)c1ccc(C(=O)N2CCC(O)(Cn3cnn4cccc4c3=O)CC2)cc1 |  |
| < 1 µM |  | Cc1ccc2c(=O)n(CC3(O)CCN(C(=O)CC(C)c4ccccc4)CC3)cnn12 (stereo not drawn) |  |
| 1 µM |  | O=C(c1ccc(Cn2cnc3ccccc32)cc1)N1CCC(O)(Cn2cnn3cccc3c2=O)CC1 |  |
| 1 µM |  | Cc1cc2c(=O)n(CC3(O)CCN(C(=O)C(C)Cc4ccccc4)CC3)cnn2c1 (stereo not drawn) |  |
| 1 µM |  | Cc1ccc(-c2ncc3c(=O)n(CC4(O)CCN(C(=O)CC(C)n5cccn5)CC4)cnn23)cc1 (stereo not drawn) |  |
| 1 µM |  | Cc1ccc2[nH]ncc2c1-c1cccc(C(=O)N2CCC(O)(Cn3cnn4cccc4c3=O)CC2)c1 |  |
| 1 µM |  | CC(C)(C)C(Cc1ccccc1)C(=O)N1CCC(O)(Cn2cnn3cccc3c2=O)CC1 (stereo not drawn) |  |
| < 1 µM |  | CNC(=O)Nc1cc2c(=O)n(CC3(O)CCN(C(=O)C[C@@H](C)c4ccccc4)CC3)cnn2c1 |  |
| 1 µM |  | CC(C)(c1ccccc1)c1ccc(C(=O)N2CCC(O)(Cn3cnn4cccc4c3=O)CC2)cc1 |  |
| 1 µM |  | O=C(c1cccc(-c2ccc3c(c2)OCO3)c1)N1CCC(O)(Cn2cnn3cccc3c2=O)CC1 |  |
| 1 µM |  | CN(C)C(=O)c1ccc(-c2cccc(C(=O)N3CCC(O)(Cn4cnn5cccc5c4=O)CC3)c2)cc1 |  |

| IC50 [1] | EC50 [3] | Compound | also measured |
| --- | --- | --- | --- |
| 1 µM |  | Cc1ccc2cc(-c3ccc(C(=O)N4CCC(O)(Cn5cnn6cccc6c5=O)CC4)cc3)ccc2n1 |  |
| 1 µM |  | O=C(c1cccc(-c2ccc(Cl)cc2)c1)N1CCC(O)(Cn2cnn3cccc3c2=O)CC1 |  |
| 1 µM |  | O=C(Nc1cc2c(=O)n(CC3(O)CCN(C(=O)C4CC4)CC3)cnn2c1)c1csc(-c2ccccc2)n1 |  |
| 1 µM |  | O=C(c1ccc(-c2ccc3ncccc3c2)cc1)N1CCC(O)(Cn2cnn3cccc3c2=O)CC1 |  |
| 1 µM |  | CC(CC(=O)N1CCC(O)(Cn2cnn3cc(Cl)cc3c2=O)CC1)c1ccccc1 (stereo not drawn) |  |
| < 0.2 µM |  | CC(CC(=O)N1CCC(O)(Cn2cnn3cccc3c2=O)CC1)n1cccc1 (stereo not drawn) |  |
| 1 µM |  | O=C(c1ccc(S(=O)(=O)c2ccccc2)cc1)N1CCC(O)(Cn2cnn3cccc3c2=O)CC1 |  |
| < 1 µM |  | CC(=O)Nc1cc2c(=O)n(CC3(O)CCN(C(=O)C[C@@H](C)c4ccccc4)CC3)cnn2c1 |  |
| 1 µM |  | CCN(c1ccccc1)c1ccc(C(=O)N2CCC(O)(Cn3cnn4cccc4c3=O)CC2)cc1 |  |
| 1 µM |  | Cc1ccc2c(=O)n(CC3(O)CCN(C(=O)C(C)Cc4ccccc4)CC3)cnn12 (stereo not drawn) |  |
| 1 µM |  | Cc1cc(C)n(Cc2ccc(C(=O)N3CCC(O)(Cn4cnn5cccc5c4=O)CC3)cc2)n1 |  |
| 1 µM |  | O=C(c1ccc(Cc2cccs2)cc1)N1CCC(O)(Cn2cnn3cccc3c2=O)CC1 |  |
| 1 µM |  | Cc1ccc(-c2cccc(C(=O)N3CCC(O)(Cn4cnn5cccc5c4=O)CC3)c2)cc1 |  |
| 1 µM |  | O=C(c1cccc(-c2cccc(Cl)c2)c1)N1CCC(O)(Cn2cnn3cccc3c2=O)CC1 |  |
| < 0.2 µM |  | C[C@H](CC(=O)N1CCC(O)(Cn2cnn3cccc3c2=O)CC1)c1ccccc1 |  |
| < 1 µM |  | Cn1c(-c2cccc(C(=O)N3CCC(O)(Cn4cnn5cccc5c4=O)CC3)c2)cc2ccccc21 |  |
| 1 µM |  | Cc1ccc(-c2ncc3c(=O)n(CC4(O)CCN(C(=O)C[C@H](C)n5cccn5)CC4)cnn23)cc1 |  |
| 1 µM |  | O=C(c1cccc(-c2ccc3ncccc3c2)c1)N1CCC(O)(Cn2cnn3cccc3c2=O)CC1 |  |
| 1 µM |  | CCC(Cc1ccccc1)C(=O)N1CCC(O)(Cn2cnn3cccc3c2=O)CC1 (stereo not drawn) |  |
| 1 µM |  | O=C(c1ccc(Cn2ccnc2)cc1)N1CCC(O)(Cn2cnn3cccc3c2=O)CC1 |  |
| 1 µM |  | O=C(c1cccc(-c2ccc3scnc3c2)c1)N1CCC(O)(Cn2cnn3cccc3c2=O)CC1 |  |
| 1 µM |  | Cc1cc(C(F)(F)F)nn1Cc1ccc(C(=O)N2CCC(O)(Cn3cnn4cccc4c3=O)CC2)cc1 |  |
| 1 µM |  | O=C(c1ccc(-n2cccn2)cc1)N1CCC(O)(Cn2cnn3c(-c4ccc(F)cc4)ncc3c2=O)CC1 |  |
| 1 µM |  | COc1ccc(-c2cccc(C(=O)N3CCC(O)(Cn4cnn5cccc5c4=O)CC3)c2)cc1 |  |
| 1 µM |  | O=C(c1cccc(-c2ccccc2)c1)N1CCC(O)(Cn2cnn3cccc3c2=O)CC1 |  |
